Measurements published in ChEMBL document CHEMBL6177971, “Iterative Optimization Yields Stapled Peptides with Superior Pharmacokinetics and Potency for Renal Fibrosis Treatment” (J Med Chem, 2025).
Active and inactive are the calls of the source. The calls are words filed in the database; no cut-off is given here. *1 amine or outer side, *2 acyl side, *3 side chain or, on linkers, in order; H or OH if unused. Where a SMILES comes first, the peptide text is derived from it. [ ]: non-standard residue; d: D form. X1 = CCCCC[C@](C)(N[*:1])C(=O)[*:2]; S5 = C=CCCC[C@](C)(N)C(=O)O

Tests used:
Mus musculus [1] = assay: Anti-fibrotic activity in C57BL/6J mouse model of unilateral ureteral obstruction assessed as decrease in renal fibrosis at 20 mg/kg, ip administered every day for 7 days by H and E staining based analysis; format: functional, organism-based; settings: time 7.0 day
Mus musculus [2] = assay: Anti-fibrotic activity in C57BL/6J mouse model of unilateral ureteral obstruction assessed as decrease in renal inflammation at 20 mg/kg, ip administered every day for 7 days by H and E staining based analysis; format: functional, organism-based; settings: time 7.0 day
[3] = Toxicity in male C57BL/6J mouse model of unilateral ureteral obstruction assessed as change in animal body weight administered intraperitoneally every day for 7 days; settings: in vivo, ip, 168 h, time 7 day
HK-2 [4] = assay: Inhibition of TGF-beta1-induced EMT in human HK-2 cells assessed as decrease in collagen I level at 10 uM incubated for 24 hrs by Western blot analysis; format: functional, cell-based
[5] = Toxicity in male C57BL/6J mouse model of unilateral ureteral obstruction assessed as change in animal behaviour administered intraperitoneally every day for 7 days; settings: in vivo, ip, 168 h, time 7 day
HK-2 [6] = assay: Inhibition of TGF-beta1-induced EMT in human HK-2 cells assessed as decrease in alpha-SMA level at 10 uM incubated for 24 hrs by Western blot analysis; format: functional, cell-based
[7] = Retention time of compound; format: physicochemical
HK-2 [8] = assay: Inhibition of TGF-beta1-induced EMT in human HK-2 cells assessed as decrease in fibronectin level at 10 uM incubated for 24 hrs by Western blot analysis; format: functional, cell-based
[9] = Toxicity in male C57BL/6J mouse model of unilateral ureteral obstruction assessed as change in animal appearance administered intraperitoneally every day for 7 days; settings: in vivo, ip, 168 h, time 7 day
Mus musculus [10] = assay: Anti-fibrotic activity in male C57BL/6J mouse model of unilateral ureteral obstruction assessed as decrease in vimentin level administered intraperitoneally every day for 7 days by Western blot analysis; format: functional, organism-based; settings: route ip, time 7.0 day
Mus musculus [11] = assay: Anti-fibrotic activity in male C57BL/6J mouse model of unilateral ureteral obstruction assessed as increase in E-cadherin level administered intraperitoneally every day for 7 days by Western blot analysis; format: functional, organism-based; settings: route ip, time 7.0 day
Mus musculus [12] = assay: Anti-fibrotic activity in male C57BL/6J mouse model of unilateral ureteral obstruction assessed as decrease in alpha-SMA level administered intraperitoneally every day for 7 days by Western blot analysis; format: functional, organism-based; settings: route ip, time 7.0 day
Mus musculus [13] = assay: Anti-fibrotic activity in male C57BL/6J mouse model of unilateral ureteral obstruction assessed as decrease in fibronectin level administered intraperitoneally every day for 7 days by Western blot analysis; format: functional, organism-based; settings: route ip, time 7.0 day
[14] = Half life of compound; format: physicochemical
[15] = Half life in C57BL/6J mouse at 2.5 mg/kg, iv measured for 3 to 60 mins by HPLC/MS analysis; format: ADME, organism-based; settings: in vivo, time 3-60 min

SMILES	Activity (Mus musculus [1])	Activity (Mus musculus [2])	Activity [3]	inhibition (HK-2 [4])	Activity [5]	inhibition (HK-2 [6])	Retention_time [7] [min]	inhibition (HK-2 [8])	Activity [9]	Activity (Mus musculus [10])	Activity (Mus musculus [11])	Activity (Mus musculus [12])	Activity (Mus musculus [13])	half-life [14] [min]	half-life [15] [min]
C[C@H](CS)C(=O)N1CCC[C@H]1C(=O)O	Active	Active													
CCCCC[C@](C)(NC(=O)[C@H](Cc1c[nH]cn1)NC(=O)[C@@H](N)CC(=O)O)C(=O)N[C@@H](CC(N)=O)C(=O)N1CCC[C@H]1C(=O)N[C@@H](CCC(N)=O)C(=O)N[C@H](C(=O)N[C@@H](CCCNC(=N)N)C(N)=O)[C@@H](C)CC (H-DH[X1]NPQIR-NH2)			Non-toxic	Active	Non-toxic	Active	10.009	Active	Non-toxic	Active	Active	Active	Active		
C=CCCC[C@](C)(NC(=O)[C@H](Cc1c[nH]cn1)NC(=O)[C@@H](N)CC(=O)O)C(=O)N[C@@H](CC(N)=O)C(=O)N1CCC[C@H]1C(=O)N[C@@H](CCC(N)=O)C(=O)N[C@H](C(=O)N[C@@H](CCCNC(=N)N)C(N)=O)[C@@H](C)CC (H-DH[S5]NPQIR-NH2)			Non-toxic	Active	Non-toxic	Active	9.036	Active	Non-toxic	Active	Active	Active	Active	98.4	11.4
